Laboratory results as given in US11702418B2, “SOS1 inhibitors” (priority 2019, dated 2023).

Columns and labels:
pERK in MKN1 cells = experiment: cells; type: cell-based; details: Homo sapiens, MKN-1, pERK inhibition, In-Cell Western; MKN1 or H358 cells (Table 24 does not say which); 0.5-1 hour incubation; read-out: IC50
Procedure: The cells were incubated for approximately 0.5-1 hour with the compounds solubilized in DMSO at 37° C. Cells were immediately fixed by adding 50 μL of 4% formaldehyde to all wells in a fume hood and the plates were incubated for 20 minutes at room temperature. The formaldehyde was discarded from the plates and 150 μL of ice-cold methanol was added to permeabilize the cells for 10 minutes at −20° C. The methanol was discarded from each of the plates and any liquid remaining in the plate by tapping the plate against paper towels. […] The plates were incubated overnight at 4° C. on a shaker.
On Assay day 2, the primary antibody solution was removed. […] The secondary antibody solution as removed and each plate was washed with PBST 3× times. Any liquid remaining was discarded and the plate was imaged using the Licor Odyssey machine according to the manufacturer's instruction, using a set focus length at 3 mm and both 800 nm and 700 nm filters. The GAPDH normalized scan values for each well were divided by the average of vehicle wells to get the % of pERK inhibition. The IC50 values were then calculated with the Graph pad Prism software.

[1] = molecular target: recombinant human SOS1 polypeptide (amino acids 560-1049) (Homo sapiens (Human), UniProt Q07889); experiment: biochemical; type: binding; details: HTRF displacement, Cy5 labelled tracer, Morrison equation for competitive binding; read-out: Ki, Inhibition of Labeled Tracer Binding to SOS1
Sequence of recombinant human SOS1 polypeptide (amino acids 560-1049) (Q07889 560-1049): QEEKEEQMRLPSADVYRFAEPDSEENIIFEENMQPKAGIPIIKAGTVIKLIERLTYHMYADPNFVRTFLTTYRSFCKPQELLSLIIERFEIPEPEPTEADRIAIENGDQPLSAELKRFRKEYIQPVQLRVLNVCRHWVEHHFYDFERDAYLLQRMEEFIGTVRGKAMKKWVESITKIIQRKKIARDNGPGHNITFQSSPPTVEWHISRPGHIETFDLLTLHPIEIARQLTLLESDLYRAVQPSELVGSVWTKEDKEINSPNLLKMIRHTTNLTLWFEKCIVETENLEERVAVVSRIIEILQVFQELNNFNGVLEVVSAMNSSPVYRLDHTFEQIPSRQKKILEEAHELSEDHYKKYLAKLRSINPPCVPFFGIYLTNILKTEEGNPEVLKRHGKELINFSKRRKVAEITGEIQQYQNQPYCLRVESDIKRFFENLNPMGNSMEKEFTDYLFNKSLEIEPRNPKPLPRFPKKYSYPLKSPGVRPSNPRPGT

Structure (SMILES) | IC50 (pERK in MKN1 cells) | Ki [1]
Cc1c([C@@H](C)Nc2nnc(C)c3cnc(OC4CN(C)C4)cc23)cccc1C(F)(F)F [Example 12-12] | 249 nM | 21.6 nM
Cc1c([C@@H](C)Nc2nnc(C)c3cnc(N4CCS(=O)(=O)CC4)cc23)cccc1C(F)(F)F [Example 12-13] | 39 nM | 1.57 nM
Cc1c([C@@H](C)Nc2nnc(C)c3cnc(N4CCN5CCOC[C@@H]5C4)cc23)cccc1C(F)(F)F [Example 12-14] | 17 nM | 0.55 nM
Cc1c([C@@H](C)Nc2nnc(C)c3cnc(N4CCC(N(C)C)CC4)cc23)cccc1C(F)(F)F [Example 12-15] | 17 nM | 0.25 nM
Cc1c([C@@H](C)Nc2nnc(C)c3cnc(N4CC5(CCN(C)C5=O)C4)cc23)cccc1C(F)(F)F [Example 12-16] | 11 nM | 0.87 nM
Cc1c([C@@H](C)Nc2nnc(C)c3cnc(N4CC5(CCN(C)C5)C4)cc23)cccc1C(F)(F)F [Example 12-17] | 17 nM | 0.46 nM
Cc1c([C@@H](C)Nc2nnc(C)c3cnc(N4CCC(C)(N(C)C)CC4)cc23)cccc1C(F)(F)F [Example 12-18] | 37 nM | 0.62 nM
Cc1c([C@@H](C)Nc2nnc(C)c3cnc(N4CC(C)(N(C)C)C4)cc23)cccc1C(F)(F)F [Example 12-19] | 59 nM | 1 nM
Cc1c([C@@H](C)Nc2nnc(C)c3cnc(N4CC(N(C)C)C4)cc23)cccc1C(F)(F)F [Example 12-20] | 62 nM | 1.6 nM
Cc1c([C@@H](C)Nc2nnc(C)c3cnc(N4CC(C)(O)C4)cc23)cccc1C(F)(F)F [Example 12-21] | 57 nM | 1.32 nM
Cc1c([C@@H](C)Nc2nnc(C)c3cnc(N4CC(O)C4)cc23)cccc1C(F)(F)F [Example 12-22] | 89 nM | 1.24 nM
Cc1c(C#N)cccc1[C@@H](C)Nc1nnc(C)c2cnc(N3CC4CC(C3)O4)cc12 [Example 12-23] | 46 nM | 1.05 nM
Cc1c(C#N)cccc1[C@@H](C)Nc1nnc(C)c2cnc(N3C[C@H]4C[C@@H]3CO4)cc12 [Example 12-24] | 38 nM | 1.24 nM
Cc1c(C#N)cccc1[C@@H](C)Nc1nnc(C)c2cnc(N3CCNCC3)cc12 [Example 12-25] | 35 nM | 2.41 nM
Cc1c([C@@H](C)Nc2nnc(C)c3cnc(N4C[C@H]5CC[C@@H]4CN5C)cc23)cccc1C(F)(F)F [Example 12-26] | 27 nM | 0.45 nM
Cc1c(C#N)cccc1[C@@H](C)Nc1nnc(C)c2cnc(N3CCN4CCOC[C@@H]4C3)cc12 [Example 12-27] | 14 nM | 2.81 nM
Cc1c(C#N)cccc1[C@@H](C)Nc1nnc(C)c2cnc(N3CCC(N(C)C)CC3)cc12 [Example 12-28] | 17 nM | 1.53 nM
Cc1c(C#N)cccc1[C@@H](C)Nc1nnc(C)c2cnc(N3CCC(N4CCC4)CC3)cc12 [Example 12-29] | 16 nM | 1.67 nM
Cc1c(C#N)cccc1[C@@H](C)Nc1nnc(C)c2cnc(N3CC(C)(O)C3)cc12 [Example 12-30] | 54 nM | 2.63 nM
Cc1c([C@@H](C)Nc2nnc(C)c3cnc(N4C5CCC4COC5)cc23)cccc1C(F)(F)F [Example 12-31] | 70 nM | 1.02 nM
Cc1c([C@@H](C)Nc2nnc(C)c3cnc(N4CC5(CCNC5=O)C4)cc23)cccc1C(F)(F)F [Example 12-32] | 18 nM | 0.97 nM

Structure (SMILES) | IC50 (pERK in MKN1 cells) | Ki [1]
Cc1c([C@@H](C)Nc2nnc(C)c3cnc(N4CCC(N5CCC5)CC4)cc23)cccc1C(F)(F)F [Example 12-33] | 55 nM | 0.3 nM
Cc1c(C#N)cccc1[C@@H](C)Nc1nnc(C)c2cnc(N3CCC(F)(F)CC3)cc12 [Example 12-34] | 51 nM | 4.24 nM
Cc1c(C#N)cccc1[C@@H](C)Nc1nnc(C)c2cnc(N3CC4(CCN(C)C4=O)C3)cc12 [Example 12-35] | 35 nM | 3.78 nM
Cc1c(C#N)cccc1[C@@H](C)Nc1nnc(C)c2cnc(N3CCN(c4cnn(C)c4)CC3)cc12 [Example 12-36] | 12 nM | 0.99 nM
COC1(C)CN(c2cc3c(N[C@H](C)c4cccc(C(F)(F)F)c4C)nnc(C)c3cn2)C1 [Example 12-37] | 32 nM | 0.85 nM
Cc1c([C@@H](C)Nc2nnc(C)c3cnc(N4CCC4)cc23)cccc1C(F)(F)F [Example 12-38] | 97 nM | 1.29 nM
Cc1c([C@@H](C)Nc2nnc(C)c3cnc(N4CC(C)(CO)C4)cc23)cccc1C(F)(F)F [Example 12-39] | 75 nM | 0.91 nM
Cc1c(C#N)cccc1[C@@H](C)Nc1nnc(C)c2cnc(N3C[C@H]4CC[C@@H]3CN4C)cc12 [Example 12-40] | 24 nM | 0.64 nM
Cc1c(C(F)F)cccc1[C@@H](C)Nc1nnc(C)c2cnc(N3CCN4CCOC[C@@H]4C3)cc12 [Example 12-42] | 27 nM | 0.79 nM
Cc1c(C#N)cccc1[C@@H](C)Nc1nnc(C)c2cnc(N3CC(C)(N(C)C)C3)cc12 [Example 12-43] | 44 nM | 3.38 nM
Cc1c(C#N)cccc1[C@@H](C)Nc1nnc(C)c2cnc(N3CCN(C)CC3)cc12 [Example 12-44] | 38 nM | 1.16 nM
Cc1c(C#N)cccc1[C@@H](C)Nc1nnc(C)c2cnc(N(C)C)cc12 [Example 12-45] | 250 nM | 3.78 nM
Cc1c(C#N)cccc1[C@@H](C)Nc1nnc(C)c2cnc(N3CCC(C)(N(C)C)CC3)cc12 [Example 12-46] | 37 nM | 0.92 nM
Cc1nnc(N[C@H](C)c2ccc(F)cc2F)c2cc(N3CC(C)(O)C3)ncc12 [Example 12-47] | 307 nM | 38.7 nM
Cc1nnc(N[C@H](C)c2ccc(F)cc2F)c2cc(N3CCN4CCOC[C@@H]4C3)ncc12 [Example 12-48] | 114 nM | 17 nM
Cc1nnc(N[C@H](C)c2ccc(F)cc2F)c2cc(N3CC(C)(N(C)C)C3)ncc12 [Example 12-49] | 161 nM | 39.7 nM
Cc1c(C#N)cccc1[C@@H](C)Nc1nnc(C)c2cnc(N3CC4(CCN(C)C4)C3)cc12 [Example 12-51] | 48 nM | 0.79 nM
CCN1CCN(c2cc3c(N[C@H](C)c4cccc(C#N)c4C)nnc(C)c3cn2)CC1 [Example 12-52] | 60 nM | 1.06 nM
Cc1c(C#N)cccc1[C@@H](C)Nc1nnc(C)c2cnc(N3CCC(C)(O)CC3)cc12 [Example 12-53] | 47 nM | 0.83 nM
Cc1c(C#N)cccc1[C@@H](C)Nc1nnc(C)c2cnc(N3CC(N(C)C)C3)cc12 [Example 12-54] | 45 nM | 5.37 nM
COC1(C)CN(c2cc3c(N[C@H](C)c4cccc(C#N)c4C)nnc(C)c3cn2)C1 [Example 12-55] | 59 nM | 3.1 nM

Structure (SMILES) | IC50 (pERK in MKN1 cells) | Ki [1]
Cc1nnc(N[C@H](C)c2cccc(F)c2F)c2cc(N3CC(C)(O)C3)ncc12 [Example 12-56] | 301 nM | 31.1 nM
Cc1cc(F)ccc1[C@@H](C)Nc1nnc(C)c2cnc(N3CC(C)(O)C3)cc12 [Example 12-57] | 1860 nM | 92.2 nM
Cc1nnc(N[C@H](C)c2ccc(F)cc2F)c2cc(N3CC4CC(C3)O4)ncc12 [Example 12-58] | 38 nM | 14.6 nM
Cc1c(C(F)F)cccc1[C@@H](C)Nc1nnc(C)c2cnc(N3CCN(c4cnn(C)c4)CC3)cc12 [Example 12-59] | 19 nM | 0.47 nM
Cc1nnc(N[C@H](C)c2cccc(C(F)(F)F)c2F)c2cc(N3C[C@H]4CC[C@@H]3CN4C)ncc12 [Example 12-60] | 24 nM | 0.25 nM
Cc1nnc(N[C@H](C)c2cccc(C(F)(F)F)c2F)c2cc(N3CC(C)(O)C3)ncc12 [Example 12-61] | 21 nM | 1.68 nM
Cc1nnc(N[C@H](C)c2cccc(C(F)(F)F)c2F)c2cc(N3CCC(N(C)C)CC3)ncc12 [Example 12-64] | 29 nM | 0.51 nM
Cc1nnc(N[C@H](C)c2cccc(C(F)(F)F)c2F)c2cc(N3CCNCC3)ncc12 [Example 12-65] | 16 nM | 0.72 nM
Cc1nnc(N[C@H](C)c2cccc(C(F)(F)F)c2F)c2cc(N3CC(N(C)C)C3)ncc12 [Example 12-66] | 77 nM | 2.1 nM
COCCN1C[C@H]2CC[C@@H]1CN2c1cc2c(N[C@H](C)c3cccc(C#N)c3C)nnc(C)c2cn1 [Example 12-70] | 13 nM | 0.68 nM
Cc1c(C#N)cccc1[C@@H](C)Nc1nnc(C)c2cnc(N3CC4(COCCN4C)C3)cc12 [Example 12-72] | 19 nM | 4.39 nM
Cc1nnc(N[C@H](C)c2cccc(F)c2F)c2cc(N3CCN4CCOC[C@@H]4C3)ncc12 [Example 12-75] | 87 nM | 14 nM
Cc1c(C#N)cccc1[C@@H](C)Nc1nnc(C)c2cnc(N3C[C@H]4CC[C@@H]3CN4CC(F)(F)F)cc12 [Example 12-76] | 56 nM | 1.06 nM
Cc1c(C#N)cccc1[C@@H](C)Nc1nnc(C)c2cnc(N3CC4(CCN(CC(F)(F)F)C4)C3)cc12 [Example 12-78] | 94 nM | 2.66 nM
Cc1cc(F)ccc1[C@@H](C)Nc1nnc(C)c2cnc(N3CCN4CCOC[C@@H]4C3)cc12 [Example 12-79] | 173 nM | 36.3 nM
Cc1nnc(N[C@H](C)c2cccc(F)c2Cl)c2cc(N3CC(C)(O)C3)ncc12 [Example 12-80] | 295 nM | 37.4 nM
Cc1c(F)cccc1[C@@H](C)Nc1nnc(C)c2cnc(N3CC(C)(N(C)C)C3)cc12 [Example 12-82] | 330 nM | 20.9 nM
Cc1nnc(N[C@H](C)c2cccc(F)c2F)c2cc(N3CC(C)(N(C)C)C3)ncc12 [Example 12-83] | 749 nM | 50.6 nM
Cc1cc(F)ccc1[C@@H](C)Nc1nnc(C)c2cnc(N3CC4CC(C3)O4)cc12 [Example 12-84] | 280 nM | 43.4 nM
